Entries after “also recorded” stand apart in the source; their conditions may differ.
Assays:
[1] = tested on: HMLER CD24^low cells; assay: Localization of intracellular iron(II) with RhoNox-1; type: cell-based, human; settings: 0.5 μM, 48 h; for lysotracker-positive vesicles colocalized with the RhoNox-1 probe: fixed cells
Experimental: Localization of intracellular iron(II). RhoNox-1 was synthesized according to the original procedure described in […]. Cells were washed with 1× Hank's Balanced Salt Solution (HBSS, 14025-092, Life technologies) three times, then incubated with 5 μM of RhoNox-1/HBSS for 1 h at 37° C., 5% CO2 and washed with HBSS. Co-staining was performed by adding 100 nM LysoTracker Deep Red and Hoechst 33342 (H1399, Sigma, final concentration of 1 μg/mL) in HBSS. Experiments were performed with a 60×APO TIRF oil immersion objective of Nipkow Spinning Disk confocal system.

[2] = tested on: non-CSC (HMLER CD24^high ID2) cells; assay: Immunoblotting of iron homeostasis regulatory proteins; type: cell-based, human
Experimental: Immunoblotting. Cells were treated as indicated, then washed twice with PBS and lysed with 2× Laemmli buffer. Cell extracts were heated at 95° C. for 5 min, sheared through a 26-gauge needle and quantified with a Nanodrop 2000 (Thermo Scientific). Protein lysates (˜100 μg) were resolved by SDS-PAGE electrophoresis and transferred onto PVDF membranes (Amersham). Membranes were blocked with 5% BSA, 0.1% Tween-20/TBS for 1 h. The blots were then probed with the relevant primary antibodies in 5% BSA, 0.1% Tween-20/TBS at 4° C. overnight with gentle agitation. Membranes were washed with 0.1% Tween-20/TBS for 30 min and were incubated with secondary antibodies for 1 h at RT. Antigens were detected by ECL (Amersham). Imaging was performed using a ChemiDoc™ XRS+ System (Biorad).

[3] = tested on: HMLER CD24^low cells; assay: Fluorescence microscopy of ferritin subcellular localization; type: cell-based, human; settings: 6 h
[4] = tested on: U2OS, HMLER CD24^low, and iCSCL-10A2 cells; assay: Lysosomal ROS in cells; type: cell-based; settings: all cell lines
[5] = tested on: HMLER CD24^low and iCSCL-10A2 cells; assay: Lipid ROS measurements (Bodipy-C11); type: cell-based; settings: 0.5 μM, 48 h
Experimental: Lipid ROS measurements. Cells were treated with Sal or AM5 (0.5 μM) as indicated. Then, cells were trypsinized and washed with PBS. Subsequently, cells were incubated with Bodipy-C11® (D3861, Thermo Fisher Scientific, 2 μM) at 37° C. for 60 min. Next, cells were washed twice with PBS. […] The data were processed using Cell Quest software (BD Biosciences) and FlowJo software (FLOWJO, LLC). For cell imaging, cells were treated as indicated in the main figure (Bodipy-C11®, 1 μM, 1 h), then fixed with formaldehyde (2% in PBS, 12 min) and analyzed by fluorescence microscopy (ex. 488 nm).

[6] = tested on: iCSCL-10A2 cells; assay: Annexin V/PI assay; type: cell-based; settings: 0.5 μM, 72 h
Experimental: (§1) Annexin V/PI assay. Cells were treated as indicated. After treatment, cell death was quantified using Annexin V-FITC/Propidium Iodide (PI) assay according to the manufacturer's protocol (FITC Annexin V Apoptosis Detection Kit II, 556570, BD Pharmingen™) and analyzed by a LSRFortessa™ flow cytometer (BD Bioscience, San Jose, Calif.). The data were processed using Cell Quest software (BD Biosciences).

[7] = tested on: HMLER CD24^low cells; assay: Annexin V/PI assay; type: cell-based, human; settings: 0.5 μM, 72 h
Experimental: as §1

[8] = tested on: ALDH+ iCSCL-10A2 cell subpopulation; assay: Flow cytometry of ALDH+ CSC subpopulation in vitro; type: cell-based; settings: 0.5 μM, 48 h
Experimental: FIG. 13. Sal and AM5 effect on an ALDH+CSC cell population in vitro. Flow cytometry measurement of the effect of 0.5 μM Sal and AM5 against ALDH+ iCSCL-10A2 cell subpopulation after treated for 48 h. DEAB is the diethylaminobenzaldehyde ALDH inhibitor.

[9] = tested on: patient-derived xenografts (PDX 1 and 2); type: in vivo, NOD/SCID mice; settings: intra-peritoneal; for ratio of residual ALDH+ cells / tumor growth: 4 weeks
Excerpt: Patient derived xenografts (PDXs). PDXs were established as previously described in Charafe-Jauffret et al., Cancer Res. 73, 7290-7300 (2013) from tissue samples collected prospectively at the Institut Paoli-Calmettes (IPC). Samples of human origin and associated data were obtained from the IPC/CRCM Tumor Bank that operates under authorization #AC-2007-33 granted by the French Ministry of Higher Education and Research. Before scientific use of samples and data, patients were appropriately informed and asked to consent in writing, in compliance with French and European regulations. The project was approved by the IPC Institutional Review Board. Cells from 2 different patient-derived xenografts (PDX 1 and 2) were transplanted orthotopically into fat pads of 4-week-old female non-obese diabetic/severe combined immunodeficient (NOD/SCID) mice (NOD.CB17-Prkdcscid/J, Charles River France) after mechanical treatment and enzymatic digestion using collagenase/hyaluronidase (StemCell Technologies) to generate single-cell suspension suitable for implantation in vivo. PDXs were primarily established as previously described in Caraft-Jauffret et al., and evaluated for ALDEFLUOR-positive CSCs. We injected single cancer cells into fat pads of NOD/SCID mice and monitored tumor growth. When tumor size reached approximately 150 mm^3, Sal and AM5 treatments were performed as indicated above for FIGS. 14 and 15. Tumor growth was compared with that of docetaxel and placebo-treated controls. After 4 weeks of treatment, the animals were sacrificed and the proportion of ALDEFLUOR-positive CSCs was measured in each residual tumor. All animal studies were approved by the French Ministry of Higher Education and Research (authorization number D130554) and ethical committee (number 14), of Aix-Marseille Université. No randomization was used and experimenters were blinded to drug treatments and tissue analyses.
Aldefluor assay. The analysis was processed on single-cell suspension from the PDXs obtained as described above. The ALDEFLUOR Kit (Stemcell™ Technologies) was used to isolate the population with high aldehyde dehydrogenase enzymatic activity using an LSR2 cytometer (Becton Dickinson Biosciences), as previously described in Charafe-Jauffret et al. To eliminate cells of mouse origin from the PDXs, we used staining with an anti-H2Kd antibody (BD Biosciences, 1:200, 20 min on ice) followed by staining with a secondary antibody labeled with phycoerythrin (PE; Jackson Laboratories, 1:250, 20 min on ice).

[10] = tested on: MDA-MD-157; assay: Sensibility to AM5; type: cell-based, human; settings: MDA-MD-157, CSTN
Experimental: (§2) Cell viability assay. Cell viability assay was carried out by plating 1000 cells/well in 96-well plates. Cells were treated as indicated for 72 h. CellTiter-Blue® Reagent (G8081, Promega) was added after 72 h treatment and cells were incubated for 1 h before recording fluorescence intensities (Excitation, 560/20 nm; Emission, 590/10 nm) using a Perkin Elmer Wallac 1420 Victor2 Microplate Reader.

[11] = tested on: T47D; assay: Sensibility to AM5; type: cell-based, human; settings: H+
Experimental: as §2

Compound | staining of iron(II) (subcellular localization) [1] | lysotracker-positive vesicles colocalized with the RhoNox-1 probe [1] | level of ferritin [2] | response of IRP2 and TfR levels [2] | subcellular localization of ferritin [3] | lysosomal ROS [4] | lipid ROS (Bodipy-C11 staining) [5] | form of cell death [6] | form of cell death [7] | effect against ALDH+ subpopulation [8] | toxicity at effective doses [9] | ratio of residual ALDH+ cells [9] | tumor growth [9] | Sensibility to AM5 [10] | Sensibility to AM5 [11]
C#CCN[C@@H]1C=C[C@]2(O[C@H]([C@@H](CC)C(=O)[C@@H](C)[C@@H](O)[C@H](C)C3O[C@@H](C(CC)C(=O)O)CC[C@@H]3C)[C@@H](C)C[C@H]2C)O[C@@]12CC[C@@](C)([C@H]1CC[C@](O)(CC)[C@H](C)O1)O2 (some centres unmarked) [AM5, Sal-Propargylamine] | restricted to the lysosomal compartment | approximately 80% | reduced the level of ferritin | did not observe a response characteristic of a cytosolic depletion of iron | re-localization of ferritin to the lysosomal compartment | significant increase in lysosomal ROS | presence of lipid peroxidation | ferroptosis | ferroptosis | selectively targeted the ALDH+ subpopulation; also recorded: more effectively than Sal | without detectable toxicity | reduced ratio of ALDH+ cells | reduce tumor growth | Second | Resistant
CC[C@@H](C(=O)[C@@H](C)[C@@H](O)[C@H](C)[C@@H]1O[C@@H]([C@@H](CC)C(=O)O)CC[C@@H]1C)[C@H]1O[C@]2(C=C[C@@H](O)[C@]3(CC[C@@](C)([C@H]4CC[C@](O)(CC)[C@H](C)O4)O3)O2)[C@H](C)C[C@@H]1C [Sal, salinomycin, reference compound] | restricted to the lysosomal compartment | approximately 80% | reduced the level of ferritin | did not observe a response characteristic of a cytosolic depletion of iron | – | significant increase in lysosomal ROS | presence of lipid peroxidation | ferroptosis | ferroptosis | – | without detectable toxicity | reduced ratio of ALDH+ cells | reduce tumor growth | – | –
